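In this assay, cells in 96-well plates receive the compound at five concentrations for 48 hours. Endpoints are linearly interpolated between the surrounding concentrations. Definition used: TGI = concentration required for complete inhibition of growth.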
Tests used:
Assay in all cases: NCI tumour cell line growth inhibition, 48 h
HCT-15 colon = test system: HCT-15 colon
UACC-257 melanoma = test system: UACC-257 melanoma
HT29 colon = test system: HT29 colon
RXF 393 renal = test system: RXF 393 renal
SF-268 CNS = test system: SF-268 CNS
MDA-N = test system: MDA-N
COLO 205 colon = test system: COLO 205 colon
SNB-19 CNS = test system: SNB-19 CNS
SNB-75 CNS = test system: SNB-75 CNS
A498 renal = test system: A498 renal
PC-3 prostate = test system: PC-3 prostate
HOP-62 NSCLC = test system: HOP-62 NSCLC
TK-10 renal = test system: TK-10 renal
UACC-62 melanoma = test system: UACC-62 melanoma
HCT-116 colon = test system: HCT-116 colon
OVCAR-4 ovarian = test system: OVCAR-4 ovarian
NCI-H226 lung = test system: NCI-H226 lung
NCI-H522 lung = test system: NCI-H522 lung
SK-MEL-28 melanoma = test system: SK-MEL-28 melanoma
786-0 renal = test system: 786-0 renal
IGROV1 ovarian = test system: IGROV1 ovarian
EKVX NSCLC = test system: EKVX NSCLC
DU-145 prostate = test system: DU-145 prostate
K-562 leukemia = test system: K-562 leukemia
MDA-MB-231 breast = test system: MDA-MB-231 breast
LOX IMVI melanoma = test system: LOX IMVI melanoma
M14 melanoma = test system: M14 melanoma
RPMI-8226 leukemia = test system: RPMI-8226 leukemia
KM12 colon = test system: KM12 colon
HL-60(TB) leukemia = test system: HL-60(TB) leukemia
NCI-H23 lung = test system: NCI-H23 lung
CAKI-1 renal = test system: CAKI-1 renal
SK-MEL-2 melanoma = test system: SK-MEL-2 melanoma
A549 NSCLC = test system: A549 NSCLC
HOP-92 NSCLC = test system: HOP-92 NSCLC
SN12C renal = test system: SN12C renal
SW-620 colon = test system: SW-620 colon
OVCAR-5 ovarian = test system: OVCAR-5 ovarian
MOLT-4 leukemia = test system: MOLT-4 leukemia
BT-549 breast = test system: BT-549 breast
SR leukemia = test system: SR leukemia
T-47D breast = test system: T-47D breast
NCI/ADR-RES ovarian = test system: NCI/ADR-RES ovarian
OVCAR-3 ovarian = test system: OVCAR-3 ovarian
OVCAR-8 ovarian = test system: OVCAR-8 ovarian
HS 578T breast = test system: HS 578T breast
NCI-H460 lung = test system: NCI-H460 lung
MALME-3M melanoma = test system: MALME-3M melanoma
MDA-MB-435 = test system: MDA-MB-435
SK-OV-3 ovarian = test system: SK-OV-3 ovarian
UO-31 renal = test system: UO-31 renal
SF-295 CNS = test system: SF-295 CNS
SK-MEL-5 melanoma = test system: SK-MEL-5 melanoma
MCF7 breast = test system: MCF7 breast
U251 CNS = test system: U251 CNS
HCC-2998 colon = test system: HCC-2998 colon
ACHN renal = test system: ACHN renal
SF-539 CNS = test system: SF-539 CNS

C#CCSC(C=C=C)P(=O)(OC(C)C)OC(C)C (stereo not drawn)
TGI (HCT-15 colon): > 100 µM | TGI (UACC-257 melanoma): > 100 µM | TGI (HT29 colon): 94.5 µM | TGI (RXF 393 renal): > 100 µM | TGI (SF-268 CNS): > 100 µM | TGI (MDA-N): > 100 µM | TGI (COLO 205 colon): > 100 µM | TGI (SNB-19 CNS): > 100 µM | TGI (SNB-75 CNS): > 100 µM | TGI (A498 renal): > 100 µM | TGI (PC-3 prostate): > 100 µM | TGI (HOP-62 NSCLC): > 100 µM | TGI (TK-10 renal): > 100 µM | TGI (UACC-62 melanoma): > 100 µM | TGI (HCT-116 colon): 62.8 µM | TGI (OVCAR-4 ovarian): > 100 µM | TGI (NCI-H226 lung): > 100 µM | TGI (NCI-H522 lung): 83.6 µM | TGI (SK-MEL-28 melanoma): > 100 µM | TGI (786-0 renal): > 100 µM | TGI (IGROV1 ovarian): > 100 µM | TGI (EKVX NSCLC): > 100 µM | TGI (DU-145 prostate): > 100 µM | TGI (K-562 leukemia): 68.4 µM | TGI (MDA-MB-231 breast): > 100 µM | TGI (LOX IMVI melanoma): > 100 µM | TGI (M14 melanoma): > 100 µM | TGI (RPMI-8226 leukemia): > 100 µM | TGI (KM12 colon): > 100 µM | TGI (HL-60(TB) leukemia): > 100 µM | TGI (NCI-H23 lung): > 100 µM | TGI (CAKI-1 renal): > 100 µM | TGI (SK-MEL-2 melanoma): > 100 µM | TGI (A549 NSCLC): > 100 µM | TGI (HOP-92 NSCLC): > 100 µM | TGI (SN12C renal): 88.3 µM | TGI (SW-620 colon): > 100 µM | TGI (OVCAR-5 ovarian): > 100 µM | TGI (MOLT-4 leukemia): 65.2 µM | TGI (BT-549 breast): 82.8 µM | TGI (SR leukemia): > 100 µM | TGI (T-47D breast): > 100 µM | TGI (NCI/ADR-RES ovarian): > 100 µM | TGI (OVCAR-3 ovarian): > 100 µM | TGI (OVCAR-8 ovarian): > 100 µM | TGI (HS 578T breast): 44.1 µM | TGI (NCI-H460 lung): > 100 µM | TGI (MALME-3M melanoma): > 100 µM | TGI (MDA-MB-435): > 100 µM | TGI (SK-OV-3 ovarian): > 100 µM | TGI (UO-31 renal): > 100 µM | TGI (SF-295 CNS): > 100 µM | TGI (SK-MEL-5 melanoma): > 100 µM | TGI (MCF7 breast): > 100 µM | TGI (U251 CNS): > 100 µM | TGI (HCC-2998 colon): 75.1 µM | TGI (ACHN renal): > 100 µM

COC(=O)c1c(OC(C)=O)ccc2c1c1c(n2C)C(=O)c2ccccc2C1=O
TGI (HCT-15 colon): > 100 µM | TGI (UACC-257 melanoma): 44.8 µM | TGI (HT29 colon): > 100 µM | TGI (RXF 393 renal): > 100 µM | TGI (SF-268 CNS): > 100 µM | TGI (MDA-N): > 100 µM | TGI (COLO 205 colon): > 100 µM | TGI (SNB-19 CNS): > 100 µM | TGI (SNB-75 CNS): 41.3 µM | TGI (A498 renal): 41.7 µM | TGI (PC-3 prostate): 88.1 µM | TGI (HOP-62 NSCLC): 67.4 µM | TGI (TK-10 renal): 88.1 µM | TGI (UACC-62 melanoma): > 100 µM | TGI (HCT-116 colon): > 100 µM | TGI (OVCAR-4 ovarian): > 100 µM | TGI (NCI-H226 lung): > 100 µM | TGI (NCI-H522 lung): 67.6 µM | TGI (SK-MEL-28 melanoma): > 100 µM | TGI (786-0 renal): > 100 µM | TGI (IGROV1 ovarian): 22.3 µM | TGI (EKVX NSCLC): 92.7 µM | TGI (DU-145 prostate): 62.5 µM | TGI (K-562 leukemia): > 100 µM | TGI (MDA-MB-231 breast): > 100 µM | TGI (M14 melanoma): > 100 µM | TGI (RPMI-8226 leukemia): 28 µM | TGI (KM12 colon): 86.4 µM | TGI (HL-60(TB) leukemia): > 100 µM | TGI (NCI-H23 lung): 61.2 µM | TGI (CAKI-1 renal): 61.7 µM | TGI (SK-MEL-2 melanoma): 96.1 µM | TGI (A549 NSCLC): 80.8 µM | TGI (SF-539 CNS): 47 µM | TGI (HOP-92 NSCLC): 9.58 µM | TGI (SN12C renal): > 100 µM | TGI (OVCAR-5 ovarian): > 100 µM | TGI (MOLT-4 leukemia): > 100 µM | TGI (BT-549 breast): 57 µM | TGI (SR leukemia): > 100 µM | TGI (T-47D breast): 36.9 µM | TGI (NCI/ADR-RES ovarian): > 100 µM | TGI (OVCAR-3 ovarian): 63 µM | TGI (OVCAR-8 ovarian): > 100 µM | TGI (HS 578T breast): 39.1 µM | TGI (NCI-H460 lung): > 100 µM | TGI (MALME-3M melanoma): 55.3 µM | TGI (MDA-MB-435): > 100 µM | TGI (SK-OV-3 ovarian): 46.2 µM | TGI (UO-31 renal): > 100 µM | TGI (SF-295 CNS): 67.8 µM | TGI (SK-MEL-5 melanoma): 47 µM | TGI (MCF7 breast): > 100 µM | TGI (U251 CNS): > 100 µM | TGI (HCC-2998 colon): 63.5 µM | TGI (ACHN renal): 51.5 µM
